# Results reported in patent US9597342B2 (UWM Research Foundation, Inc., priority 2011, dated 2017).
# pKi: −log10 of the molar value.
# Assays:
# [1] = Incubation with heat-inactivated human liver microsomes (stability control); details: 60 min
# Method: (§1) The test articles were incubated at two concentrations (1 and 10 μM) in 96-well plate format with active or heat-inactivated human liver microsomes and cofactors. Aliquots were removed at 0, 15, 30 and 60 minutes and mixed with acetonitrile containing internal standard for analysis. Samples were extracted and assayed using a liquid chromatography/tandem mass spectrometry (LC-MS/MS) analytical method.
# (§2) The test articles (1 and 10 μM) were incubated with human liver microsomes (0.5 mg protein/ml) and appropriate cofactors (2.5 mM NADPH and 3.3 mM magnesium chloride) in 100 mM phosphate buffer, pH 7.4 (0.1% final DMSO), in a 37° C. water bath. Incubations with all compounds were initiated with the addition of microsomes. At selected time points (0, 15, 30 and 60 min), a single 100 μl aliquot was removed from each sample and mixed with 200 μl of chilled acetonitrile containing internal standard. Following brief vortexing and centrifugation, the samples were further diluted into a 96-well plate for subsequent LC-MS/MS analysis. All samples were assayed in duplicate.
# (§3) Experimental controls consisted of: a) incubation of all components except test article for 0 and 60 min, b) incubation of midazolam (positive control) at 10 μM for 0, 15, 30 and 60 min, and c) incubation of 1 and 10 μM test article and 10 μM midazolam with heat-inactivated microsomes (0.5 mg protein/ml) for 0 and 60 min. All controls were assayed in duplicate.
# (§4) Data from the metabolic stability assays were transferred to and processed in a Microsoft Excel spreadsheet. To determine metabolic stability, the percent remaining at each time point was calculated by dividing the peak area ratio of test article/internal standard at each time point by the peak area ratio at 0 min multiplied by 100.
# [2] = In vitro metabolic stability using human liver microsomes
# Method: The metabolic stability of 15 GABAA receptor ligands using human liver microsomes was studied. The test articles were incubated at two concentrations (1 and 10 μM) and aliquots (100 μl) were removed at various time points (0, 15, 30 and 60 minutes), and analyzed by LC-MS/MS.
# as §1
# Pooled human liver microsomes (Lot #38289, pool of 150 different male and female donor livers) were obtained from BD Biosciences Corporation (Woburn, Mass.). Microsomes were stored at ˜−135° C. until use.
# as §2, §3
# Samples were analyzed by LC-MS/MS in multiple reaction monitoring mode using positive-ion electrospray ionization. The details of the LC-MS/MS method can be provided upon request.
# as §4
# GABAA/α5 receptors = target: T1, GABAA/α5 receptors (Homo sapiens, UniProt P18507+P31644); details: high affinity; Huang et al., J. Med. Chem. 2000; cited from earlier work
# T1 sequence (P31644 32-462): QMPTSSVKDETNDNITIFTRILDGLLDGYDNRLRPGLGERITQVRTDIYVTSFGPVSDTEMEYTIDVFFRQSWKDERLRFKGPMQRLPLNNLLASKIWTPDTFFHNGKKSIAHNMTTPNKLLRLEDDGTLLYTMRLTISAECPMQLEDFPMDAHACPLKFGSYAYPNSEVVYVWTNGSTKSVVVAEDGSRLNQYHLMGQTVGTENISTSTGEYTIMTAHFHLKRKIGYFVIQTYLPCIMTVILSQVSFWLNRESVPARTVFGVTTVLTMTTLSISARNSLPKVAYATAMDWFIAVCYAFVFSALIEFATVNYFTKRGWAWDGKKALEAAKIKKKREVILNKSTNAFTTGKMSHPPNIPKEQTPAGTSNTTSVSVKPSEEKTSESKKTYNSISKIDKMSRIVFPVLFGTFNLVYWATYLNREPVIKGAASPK
# T1 sequence (P18507 40-467 limits assumed): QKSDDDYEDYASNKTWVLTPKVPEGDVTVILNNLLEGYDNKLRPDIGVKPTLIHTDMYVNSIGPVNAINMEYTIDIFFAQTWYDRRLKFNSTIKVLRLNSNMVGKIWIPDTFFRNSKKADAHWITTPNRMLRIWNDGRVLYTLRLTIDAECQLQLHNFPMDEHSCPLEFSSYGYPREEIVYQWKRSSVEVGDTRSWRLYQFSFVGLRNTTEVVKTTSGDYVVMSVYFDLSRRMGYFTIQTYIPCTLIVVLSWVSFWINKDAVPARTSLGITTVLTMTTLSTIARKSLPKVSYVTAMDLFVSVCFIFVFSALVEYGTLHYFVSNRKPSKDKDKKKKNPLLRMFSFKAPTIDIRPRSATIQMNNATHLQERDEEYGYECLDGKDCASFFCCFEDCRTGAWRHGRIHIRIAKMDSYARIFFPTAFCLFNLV
# T1 sequence (P28472 26-473 partner): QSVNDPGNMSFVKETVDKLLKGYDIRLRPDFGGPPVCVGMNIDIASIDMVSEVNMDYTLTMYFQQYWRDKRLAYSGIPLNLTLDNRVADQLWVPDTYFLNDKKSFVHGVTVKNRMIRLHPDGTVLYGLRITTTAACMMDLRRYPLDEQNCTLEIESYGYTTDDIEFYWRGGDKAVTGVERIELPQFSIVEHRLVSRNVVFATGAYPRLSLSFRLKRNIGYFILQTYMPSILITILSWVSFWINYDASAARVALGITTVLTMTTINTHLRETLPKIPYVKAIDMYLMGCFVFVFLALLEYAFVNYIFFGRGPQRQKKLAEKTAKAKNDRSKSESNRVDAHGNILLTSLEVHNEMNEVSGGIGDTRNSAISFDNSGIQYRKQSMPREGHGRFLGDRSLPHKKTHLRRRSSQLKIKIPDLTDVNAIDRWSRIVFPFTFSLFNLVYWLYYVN
# GABAA/α2 = target: T2, GABAA/α2 (Homo sapiens, UniProt P18507+P47869); details: intermediate affinity; Huang et al., J. Med. Chem. 2000; cited from earlier work
# T2 sequence (P47869 29-451): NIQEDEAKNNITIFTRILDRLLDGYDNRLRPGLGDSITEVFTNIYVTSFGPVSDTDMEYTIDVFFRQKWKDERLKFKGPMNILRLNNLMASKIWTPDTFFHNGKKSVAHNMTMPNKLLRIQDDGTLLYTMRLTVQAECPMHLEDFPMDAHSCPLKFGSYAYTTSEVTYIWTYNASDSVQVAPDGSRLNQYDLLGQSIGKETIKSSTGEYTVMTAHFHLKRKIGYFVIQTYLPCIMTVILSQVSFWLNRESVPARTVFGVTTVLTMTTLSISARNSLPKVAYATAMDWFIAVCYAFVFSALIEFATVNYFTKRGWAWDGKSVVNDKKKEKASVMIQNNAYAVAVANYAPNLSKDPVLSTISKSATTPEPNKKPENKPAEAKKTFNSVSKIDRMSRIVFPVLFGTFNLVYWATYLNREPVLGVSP
# T2 sequence (P18507 40-467 limits assumed): T1 sequence (P18507 40-467 limits assumed)
# T2 sequence (P28472 26-473 partner): T1 sequence (P28472 26-473 partner)
# GABAA/α1 receptors = target: T3, GABAA/α1 receptors (Homo sapiens, UniProt P14867+P18507); details: poorer affinity; Huang et al., J. Med. Chem. 2000; cited from earlier work
# T3 sequence (P14867 28-456): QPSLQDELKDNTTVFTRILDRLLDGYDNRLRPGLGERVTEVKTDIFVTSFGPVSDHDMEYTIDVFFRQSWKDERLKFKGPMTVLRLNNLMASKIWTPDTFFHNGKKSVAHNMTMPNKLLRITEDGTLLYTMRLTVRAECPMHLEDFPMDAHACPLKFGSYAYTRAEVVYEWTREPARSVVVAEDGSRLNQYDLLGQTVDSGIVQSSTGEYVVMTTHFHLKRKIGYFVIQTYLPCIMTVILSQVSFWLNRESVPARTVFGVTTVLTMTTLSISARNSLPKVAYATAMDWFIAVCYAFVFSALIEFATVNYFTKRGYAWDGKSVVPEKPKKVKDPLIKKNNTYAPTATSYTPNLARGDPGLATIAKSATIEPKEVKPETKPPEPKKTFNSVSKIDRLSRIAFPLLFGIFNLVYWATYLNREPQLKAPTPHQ
# T3 sequence (P18507 40-467 limits assumed): T1 sequence (P18507 40-467 limits assumed)
# T3 sequence (P28472 26-473 partner): T1 sequence (P28472 26-473 partner)
# GABAA/α3 = target: T4, GABAA/α3 (Homo sapiens, UniProt P18507+P34903); details: intermediate affinity; Huang et al., J. Med. Chem. 2000; cited from earlier work
# T4 sequence (P34903 29-492): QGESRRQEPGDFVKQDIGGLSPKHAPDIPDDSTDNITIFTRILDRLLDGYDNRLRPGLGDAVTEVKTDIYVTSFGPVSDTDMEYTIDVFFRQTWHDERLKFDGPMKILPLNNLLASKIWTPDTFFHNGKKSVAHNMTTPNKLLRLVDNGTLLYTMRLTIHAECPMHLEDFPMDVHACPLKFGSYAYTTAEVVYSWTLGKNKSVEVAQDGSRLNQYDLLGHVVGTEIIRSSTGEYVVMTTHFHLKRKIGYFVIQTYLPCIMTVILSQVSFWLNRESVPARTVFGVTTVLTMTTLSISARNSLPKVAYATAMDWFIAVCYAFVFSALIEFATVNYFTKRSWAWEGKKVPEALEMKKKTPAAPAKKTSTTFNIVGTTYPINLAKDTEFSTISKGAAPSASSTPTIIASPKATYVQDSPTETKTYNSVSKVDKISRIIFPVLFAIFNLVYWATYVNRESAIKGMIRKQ
# T4 sequence (P18507 40-467 limits assumed): T1 sequence (P18507 40-467 limits assumed)
# T4 sequence (P28472 26-473 partner): T1 sequence (P28472 26-473 partner)
# rhesus monkeys = experiment: Conflict procedure (anxiolytic and sedating effects) in rhesus monkeys; format: in vivo; details: i.v., cumulative dosing, data for one monkey (FIG. 14)
# From the text: Other methods for evaluating compounds are known to those skilled in the art. For example, an assessment of anxiolytic effects of compounds can be accomplished objectively and quantitatively with operant-based conflict procedures, as described in Fischer et al. Neuropharmacology 59 (2010) 612-618. Briefly, behavior which is positively reinforced can be suppressed in these procedures by response-contingent administration of a noxious stimulus such as mild electric shock. […] The strength of conflict procedures is their predictive validity with respect to expected therapeutic effects in humans. Results from the Fischer et al. indicate that benzodiazepine-like drugs that have pharmacological activity for α2GABAA and/or α3GABAA receptors and low receptor activity at α 1GABAA and α5GABAA receptors may be useful, particularly as non-sedating anxiolytics. […]
# Test sessions were conducted once or twice per week when monkeys reached stable performance, defined as the average rates of responding for component 1 and component 2 not varying by ±20% over five consecutive sessions, with no upward or downward trends. […] The dependent measure was the average rates of responding (responses/s), calculated by dividing responses by time during components 1 and 2, excluding responding during time outs or reinforcer delivery.
SMILES,melting point,"Mean % Remaining vs T = 0 min, with HI (Heat Inactivated) Microsomes ([1]; 1 μM)","Mean % Remaining vs T = 0 min, with HI (Heat Inactivated) Microsomes ([1]; 10 μM)","Mean % Remaining vs T = 0 min, Human Liver Microsomes ([2]; 1 μM, 15 min)","Mean % Remaining vs T = 0 min, Human Liver Microsomes ([2]; 1 μM, 30 min)","Mean % Remaining vs T = 0 min, Human Liver Microsomes ([2]; 1 μM, 60 min)","Mean % Remaining vs T = 0 min, Human Liver Microsomes ([2]; 10 μM, 15 min)","Mean % Remaining vs T = 0 min, Human Liver Microsomes ([2]; 10 μM, 30 min)","Mean % Remaining vs T = 0 min, Human Liver Microsomes ([2]; 10 μM, 60 min)",pKi (GABAA/α5 receptors),pKi (GABAA/α2),pKi (GABAA/α1 receptors),pKi (GABAA/α3),anxiolytic effect (suppressed responding) (rhesus monkeys),sedating effect (non-suppressed responding) (rhesus monkeys)
"C#Cc1ccc2c(c1)C(c1ccccc1F)=NCc1c(C(=O)NC)ncn1-2 [HJ-I-037, 8-Ethynyl-N-methyl-6-(2-fluorophenyl)-4H-benzo[f]imidazo[1,5-a][1,4]diazepine-3-carboxamide]",235 to 236 °C,117%,108%,97.7%,99.5%,92.7%,96.8%,103%,103%,–,–,–,–,–,–
"C#Cc1ccc2c(c1)C(c1ccccn1)=NCc1c(C(=O)NC)ncn1-2 [HJ-I-40, 8-Ethynyl-N-methyl-6-(pyridine-2-yl)-4H-benzo[f]imidazo[1,5-a][1,4]diazepine-3-carboxamide]",215 to 216 °C,110%,110%,109%,126%,136%,104%,106%,110%,–,–,–,–,–,–
C#Cc1ccc2c(c1)C(c1ccccc1)=NCC(=O)N2C [QH-ii-066],–,–,–,–,–,–,–,–,–,> 8.00,> 7.30,< 7.15,> 7.30,–,–
"C#Cc1ccc2c(c1)C(c1ccccc1F)=NCc1c(C(=O)OCCCOC(=O)c3ncn4c3CN=C(c3ccccc3F)c3cc(C#C)ccc3-4)ncn1-2 [YT-III-271, Propane-1,3-Diyl-Bis-(8-Ethynyl-6-(2-Fluorophenyl)-4H-Benzo-[1]-Imidazo-[1,5-a]-[1,4]-Diazepine-3-Carboxylate)]",–,117%,97.0%,97.1%,83.5%,–,104%,102%,91.1%,–,–,–,–,clearly anxiolytic,nonsedating
